Publication PMC1925066, “Optical biosensor differentiates signaling of endogenous PAR1 and PAR2 in A431 cells” (BMC Cell Biology, 2007)
Where a SMILES comes first, the peptide text is derived from it.

How the values were obtained:
[1] = test system: cell surface cholesterol of A431 cells; test: Effect of cholesterol depletion (cyclodextrin pre-treatment) on agonist-induced Ca2+ mobilization; type: cell-based, human; conditions: for IC50: one-phase decay fit
Text: Since the physiological significance of co-expression of two receptors in A431 is unclear, we were interested in the possibility of differentiated regulation of PAR1 and PAR2 signaling. A common mechanism for the cell to regulate and differentiate receptor signaling is compartmentalization of receptors and/or their signaling components. Amassing evidences support the hypothesis that there are many cholesterol-rich microdomains at the cell surface membrane, although their characteristics are still under extensive investigations. Such microdomain is believed to enable the sorting and segregation of receptors and their signaling cascades, thus regulating cell signaling. Methyl-β-cyclodextrin (mβCD) has been widely used to extract cell surface choleterol primarily through effluxing, thus disrupting these cholesterol-rich microdomains. Thus, we examined the effect of cholesterol depletion by mβCD on both Ca^2+ mobilization and DMR responses induced by thrombin and trypsin. […] Both dose-dependent inhibition curves appeared fit well with a one-phase decay non-linear regression, leading to an almost identical half-concentration (C1/2 of ~1.5 mM) of mβCD. This is consistent with the fact that mβCD results in rapid effluxing of cell membrane cholesterol molecules; and the amount of remain cell surface cholesterol depends on the concentration of mβCD in solution [27]. The higher concentration mβCD is, the less cholesterol is retained at the cell surface membrane. […]
(§1) Cells were grown in Costar™ 96well clear cell culture microplates. […] The assay was initiated by transferring 50 μl PAR agonist solution to the cell plate, and calcium signal was recorded over 6 minutes with a 6 sec interval using HTS7000 BioAssay Reader (PerkinElmer Life Science, Boston, MA). The fluorescent intensity before stimulation was recorded and used as a baseline. The percentage increase in fluorescence intensity after stimulation, relative to the baseline fluorescence, was analyzed and used directly as a measure for the increase of intracellular Ca^2+ level induced by PAR agonists.

[2] = test system: cell surface cholesterol of A431 cells; test: Effect of cholesterol depletion (cyclodextrin pre-treatment) on agonist-induced DMR signals; type: cell-based, human
Procedure: Similarly, the mβCD pre-treatment also led to a dose-dependent attenuation of the DMR signals induced by thrombin or trypsin (Fig. 7). However, there is a clear distinction between the inhibition curves of trypsin- and thrombin-induced DMR signals by mβCD. […] As expected, αCD up to 8 mM had little effect on both agonist-induced DMR responses. […] A23187 is a Ca^2+ ionophore, and is able to release stored Ca^2+ from the endoplasmic reticulum in cells.
Figure 7 Cholesterol removal attenuates the agonist-induced DMR signals. mβCD was used to deplete cell surface cholesterol. Its effect on the amplitudes of the P-DMR events induced by (a) thrombin (40 unit/ml) or (b) trypsin (200 nM) was analyzed. In comparison, the effect of αCD was also included. (c) The DMR signals of A431 cells induced by A23187 without or with the pre-treatment with 5 mM mβCD.
(§2) Corning® Epic™ angular interrogation system with transverse magnetic or p-polarized TM0 mode was used for all studies. The detailed instrumental setup and assay protocols had been previously described. Briefly, all compound solutions were prepared using 1 × HBSS containing minimal amount of dimethyl sulfoxide, while the starved cells were washed and maintained with 100 μl the serum-free DMEM. The cells were then treated with 50 μl 1 × HBSS buffered solution in the absence and presence of a compound, followed by stimulation with ligand solutions. The cellular responses were monitored in real time throughout the assays.

[3] = test system: endogenous PAR1 and PAR2 in A431 cells; test: Fluo-3 Ca2+ mobilization (Ca2+ flux) assay in quiescent A431 cells; type: cell-based, human; conditions: for rapid and transient increase in intracellular Ca^2+: quiescent A431 cells; for maximal [Ca^2+]i elevation: SFLLR-amide at 80 μM; for responsiveness (Ca^2+ mobilization) after pre-stimulation with thrombin: thrombin 40 unit/ml first; for Ca^2+ mobilization response after pre-stimulation with trypsin: trypsin 200 nM first, repeated stimulation separated by 6 min
Procedure: (§3) Human epidermoid carcinoma A431 cells ([…]) were grown in Dulbecco's modified Eagle's medium (DMEM) supplemented with 10% fetal bovine serum (FBS), 4.5 g/liter glucose, 2 mM glutamine, and antibiotics. ~5 × 10^4 cells at passage 3 to 8 suspended in 200 μl the DMEM medium containing 10% FBS were placed in each well of a 96well microplate, and were cultured at 37°C under air/5% CO2 for ~2 days, followed by ~20 hr starvation through continuously culturing in the serum-free DMEM.
Cells were grown in Costar™ 96well clear cell culture microplates. After starvation, the cells were washed with 1× HBSS (1× regular Hank's balanced salt solution, 20 mM HEPES buffer, pH 7.0) in the presence of 2.5 mM probenicid, and labeled in the same buffer containing 4 μM Fluo-3 for 1 hour at room temperature. The cells were then washed twice with buffer, maintained with 100 μl 1× HBSS containing 2.5 mM probenicid. The assay was initiated by transferring 50 μl PAR agonist solution to the cell plate, and calcium signal was recorded over 6 minutes with a 6 sec interval using HTS7000 BioAssay Reader (PerkinElmer Life Science, Boston, MA). The fluorescent intensity before stimulation was recorded and used as a baseline. The percentage increase in fluorescence intensity after stimulation, relative to the baseline fluorescence, was analyzed and used directly as a measure for the increase of intracellular Ca^2+ level induced by PAR agonists.
(§4) Unless specifically mentioned, three replicates were carried out for each measurement or each compound. The standard deviation was derived from these measurements (n = 3). […] All dose-dependent responses were analyzed using non-linear regression method with the Prism software (Graph Pad).

[4] = test system: endogenous PAR1 and PAR2 in A431 cells; test: MRCAT resonant waveguide grating biosensor DMR assay in quiescent A431 cells; type: cell-based, human; conditions: for Gq-type DMR signal: quiescent A431 cells, 20 μM; for desensitization of trypsin-treated cells (DMR signal): trypsin 200 nM first, repeated stimulation separated by ~1 hr; for effect of preceding stimulation on trypsin-induced DMR signal: trypsin 200 nM
Procedure: as §3, §2, §4

A431 cells = test: Cell toxicity / cell detachment from the biosensor surface; type: cell-based, human; conditions: high doses (>8 mM)
EGFR in A431 cells [5] = test: Interference of EGFR activation with PAR signaling, DMR signal; type: cell-based, human
Text: (§5) A431 cells express large numbers of EGF receptors. AG1478 is a potent and selective EGFR tyrosine kinase inhibitor. It is also known that cholesterol removal by mβCD triggers a ligand-independent transactivation of EGFR in A431 cells. Thus, we were interested the interference of EGFR activation with PAR signaling. The preceding stimulation with EGF had little effect on the Ca^2+ mobilization induced by trypsin (Fig. 9a) or thrombin (data not shown).
(§6) Figure 9 The effect of preceding EGF stimulation on PAR signaling. (a) The Ca^2+ mobilization. (b, c) The DMR signals. The ligands were EGF (100 nM), trypsin (100 nM), and thrombin (40 unit/ml). The cell responses with the pre-treatment with the HBSS only were also included as control.
as §2

EGFR in A431 cells [6] = test: Interference of EGFR activation with PAR signaling, Ca2+ mobilization; type: cell-based, human; conditions: EGF 100 nM; trypsin 100 nM, thrombin 40 unit/ml
Text: as §5, §6, §1

EGFR in A431 cells [7] = test system: EGFR in A431 cells; set-up: method as in PMID 16766609; conditions: blockage of EGFR tyrosine kinase activity in A431; cited from earlier work
[8] = 100 nM, trypsin 100 nM, thrombin 40 unit/ml

In the case of Methyl-β-cyclodextrin [mβCD], the IC50 ([1]; thrombin 40 unit/ml, read-out: half-concentration (C1/2) for suppression of thrombin-induced Ca^2+ mobilization) is reported as about 1500 µM, the IC50 ([1]; trypsin 200 nM, read-out: half-concentration (C1/2) for suppression of trypsin-induced Ca^2+ mobilization) is reported as about 1500 µM and the “effect on DMR signal induced by 5 μM A23187” value ([2]; pre-treatment at 5 mM) is reported as “little effect”. The IC50 ([2]; thrombin 40 unit/ml, P-DMR amplitude, read-out: C1/2 for suppression of thrombin-induced DMR) was 1200 ± 300 µM, the IC50 ([2]; trypsin 200 nM, 2-phase decay, read-out: C1/2 for inhibition of trypsin-mediated DMR, first phase) was 5000 ± 1000 µM and the IC50 ([2]; trypsin 200 nM, 2-phase decay, read-out: C1/2 for inhibition of trypsin-mediated DMR, second phase) was 11000 ± 2000 µM.

For TFRGAP, the “rapid and transient increase in intracellular Ca^2+” value [3] was “only PAR1 and PAR2 agonists resulted in” and the “Gq-type DMR signal” value [4] was “only PAR1 and PAR2 agonists resulted in”.

For “bradykinin (RPPGFSPFR; Bradykinin; UniProt P01042 381-389, looked up) [agonist for bradykinin B2 receptor]”, the “Ca^2+ mobilization response after pre-stimulation with PAR agonists” value ([3]; bradykinin 100 nM, separated by 6 min) was “neither of PAR agonists examined had any effect”, the “effect of preceding stimulation on DMR signal induced by any PAR agonist” value ([4]; bradykinin 100 nM first, separated by ~1 hr) was “no obvious effect” and the “desensitization of trypsin-treated cells (DMR signal)” value (“desensitization” below) [4] was “not”.

For `OC[C@H]1O[C@@H]2O[C@H]3[C@H](O)[C@@H](O)[C@@H](O[C@H]4[C@H](O)[C@@H](O)[C@@H](O[C@H]5[C@H](O)[C@@H](O)[C@@H](O[C@H]6[C@H](O)[C@@H](O)[C@@H](O[C@H]7[C@H](O)[C@@H](O)[C@@H](O[C@H]1[C@H](O)[C@H]2O)O[C@@H]7CO)O[C@@H]6CO)O[C@@H]5CO)O[C@@H]4CO)O[C@@H]3CO` [αCD, α-cyclodextrin], the “effect on trypsin and thrombin-induced Ca^2+ mobilization responses” value ([1]; up to 8 mM) was “little effect”, the “effect on both agonist-induced (thrombin, trypsin) DMR responses” value ([2]; up to 8 mM) was “little effect” and the “cell toxicity and cell detachment from the biosensor surface” value (A431 cells) was “detectable cell toxicity”.

In the case of GYPGQV, the “rapid and transient increase in intracellular Ca^2+” value [3] is reported as “only PAR1 and PAR2 agonists resulted in” and the “Gq-type DMR signal” value [4] is reported as “only PAR1 and PAR2 agonists resulted in”.

In the case of “epidermal growth factor (NSDSECPLSHDGYCLHDGVCMYIEALDKYACNCVVGYIGERCQYRDLKWWELR; UniProt P01133 971-1023, looked up) [EGF, epidermal growth factor, purchased from Sigma]”, the “effect on N-DMR event induced by either trypsin or thrombin” value (EGFR in A431 cells [5]; [8]) is reported as “almost completely inhibited”, the “effect on P-DMR event induced by either trypsin or thrombin” value (EGFR in A431 cells [5]; [8]) is reported as “only slightly attenuated” and the “effect of preceding stimulation on Ca^2+ mobilization induced by trypsin or thrombin” value (EGFR in A431 cells [6]) is reported as “little effect”.

For `COc1cc2ncnc(Nc3cccc(Cl)c3)c2cc1OC` [AG1478], the “effect of pre-treatment on inhibition of trypsin-induced DMR by cholesterol depletion” value (EGFR in A431 cells [5]; data not shown) is listed as “did not counter the inhibitory effect” and the “effect on trypsin-induced DMR signal” value (EGFR in A431 cells [7]) is listed as “partially attenuated”.

With `CC[C@H](C)[C@H](NC(=O)[C@H](CC(C)C)NC(=O)[C@@H](N)CO)C(=O)NCC(=O)N[C@@H](CCCCN)C(=O)N[C@H](C(N)=O)C(C)C` [SLIGKV-amide] (H-SLIGKV-NH2; N-terminus assumed) the “maximal [Ca^2+]i elevation” value ([3]; A431 cells) was 52 ± 6%, the EC50 ([3]; A431 cells, read-out: EC50 (n = 3) Ca^2+ flux assay) was 3.8 ± 0.4 µM and the “effect of preceding stimulation on trypsin-induced Ca^2+ mobilization” value ([3]; peptide 20 μM first, then trypsin 200 nM, separated by 6 min) was “partially attenuated”. The “responsiveness (Ca^2+ mobilization) after pre-stimulation with thrombin” value ([3]; separated by 6 min) was “not”, the “Ca^2+ mobilization response after pre-stimulation with trypsin” value [3] was “completely blocked” and the EC50 ([4]; A431 cells, amplitude of N-DMR event, read-out: EC50 (n = 3) N-DMR) was 9.1 ± 2.2 µM. The EC50 ([4]; A431 cells, amplitude of P-DMR event, read-out: EC50 (n = 3) P-DMR) was 6.1 ± 1 µM, the “DMR signals in cells with or without pre-stimulation with thrombin” value ([4]; separated by ~1 hr) was “almost identical DMR signals” and the “effect of preceding stimulation on trypsin-induced DMR signal” value ([4]; separated by ~1 hr) was “only partially attenuated”. The “desensitization” value [4] was “only partially”.

In the case of “Thrombin: serine protease, PAR1 agonist, purchased from Sigma”, the “EC50 (n = 3) Ca^2+ flux assay” value ([3]; A431 cells) is reported as 6.0 ± 1.0 unit/ml, the “maximal [Ca^2+]i elevation” value ([3]; A431 cells) is reported as 48 ± 4% and the “responsiveness (Ca^2+ mobilization) after pre-stimulation with thrombin” value ([3]; separated by 6 min) is reported as “completely inhibited”. For the same compound, the “Ca^2+ mobilization response after pre-stimulation with trypsin” value [3] was “completely blocked”, the “EC50 (n = 3) N-DMR” value ([4]; A431 cells, amplitude of N-DMR event) was 11.0 ± 1.9 unit/ml and the “EC50 (n = 3) P-DMR” value ([4]; A431 cells, amplitude of P-DMR event) was 9.6 ± 2.0 unit/ml. The “effect of preceding stimulation on trypsin-induced DMR signal” value ([4]; separated by ~1 hr) was “only partially attenuated” and the “desensitization” value [4] was “completely desensitized”.
